*1 amine or outer side, *2 acyl side, *3 side chain or, on linkers, in order; H or OH if unused. Where a SMILES comes first, the peptide text is derived from it. [ ]: non-standard residue; d: D form. Ala(2-NH2-benzothiazol-6-yl) = Nc1nc2ccc(C[C@H](N)C(=O)O)cc2s1; Phe(2,6-Me2,4-CONH2) = Cc1cc(C(N)=O)cc(C)c1C[C@H](N)C(=O)O; Phe(3-CONH2) = NC(=O)c1cccc(C[C@H](N)C(=O)O)c1; Phe(4-CONH2) = NC(=O)c1ccc(C[C@H](N)C(=O)O)cc1; X1 = O=C([C@H](Cc1cc[n+]([O-])cc1)N[*:1])[*:2]
Key:
[1] = biological target: Kappa-type opioid receptor (Homo sapiens, UniProt P41145)
Mu-type opioid receptor [2] = biological target: T1, Mu-type opioid receptor (Homo sapiens, UniProt P35372)
[3] = biological target: T2, Delta-type opioid receptor (Homo sapiens, UniProt P41143)
[4] = biological target: T2, Delta-type opioid receptor; assay type: functional
Mu-type opioid receptor [5] = biological target: T1, Mu-type opioid receptor; assay type: functional

T2 sequence (P41143 whole entry): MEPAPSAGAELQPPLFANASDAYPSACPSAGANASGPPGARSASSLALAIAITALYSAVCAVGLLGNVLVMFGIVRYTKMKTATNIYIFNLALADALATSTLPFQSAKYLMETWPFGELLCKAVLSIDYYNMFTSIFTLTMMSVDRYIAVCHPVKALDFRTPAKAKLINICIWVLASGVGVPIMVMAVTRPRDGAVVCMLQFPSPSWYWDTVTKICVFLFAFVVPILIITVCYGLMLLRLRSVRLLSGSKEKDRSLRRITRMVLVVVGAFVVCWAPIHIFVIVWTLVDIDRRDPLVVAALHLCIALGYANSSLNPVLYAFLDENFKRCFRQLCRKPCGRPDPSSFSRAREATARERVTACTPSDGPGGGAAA
T1 sequence (P35372 whole entry): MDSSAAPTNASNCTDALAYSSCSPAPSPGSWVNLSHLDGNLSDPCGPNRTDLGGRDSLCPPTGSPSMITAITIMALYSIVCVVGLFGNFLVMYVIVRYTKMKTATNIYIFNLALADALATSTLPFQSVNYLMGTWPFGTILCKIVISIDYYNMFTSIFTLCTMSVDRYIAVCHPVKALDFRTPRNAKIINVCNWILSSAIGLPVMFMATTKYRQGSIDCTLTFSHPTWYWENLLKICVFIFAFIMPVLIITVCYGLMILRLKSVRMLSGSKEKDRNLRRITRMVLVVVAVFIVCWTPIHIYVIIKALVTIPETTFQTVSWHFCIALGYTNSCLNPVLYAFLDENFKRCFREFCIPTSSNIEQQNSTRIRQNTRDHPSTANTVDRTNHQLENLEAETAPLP
Sequence of Kappa-type opioid receptor (P41145 whole entry): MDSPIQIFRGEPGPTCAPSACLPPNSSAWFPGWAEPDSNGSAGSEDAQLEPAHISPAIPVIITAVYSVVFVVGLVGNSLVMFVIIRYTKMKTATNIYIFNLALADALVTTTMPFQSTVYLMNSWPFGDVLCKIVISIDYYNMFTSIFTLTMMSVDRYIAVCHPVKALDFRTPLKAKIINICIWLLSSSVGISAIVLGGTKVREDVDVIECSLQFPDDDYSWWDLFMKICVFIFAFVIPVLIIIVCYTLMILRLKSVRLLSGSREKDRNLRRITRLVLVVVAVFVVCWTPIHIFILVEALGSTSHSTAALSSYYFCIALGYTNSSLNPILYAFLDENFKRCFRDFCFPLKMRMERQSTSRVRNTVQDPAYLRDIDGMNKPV

| Structure (SMILES) | Ki [1] [nM] | Ki (Mu-type opioid receptor [2]) [nM] | Ki [3] [nM] | EC50 [4] [nM] | EC50 (Mu-type opioid receptor [5]) [nM] |
| --- | --- | --- | --- | --- | --- |
| CSCC[C@H](NC(=O)[C@H](Cc1ccccc1)NC(=O)CNC(=O)CNC(=O)[C@@H](N)Cc1ccc(O)cc1)C(=O)O | > 10000 | – | – | – | – |
| CC1(C)SSC(C)(C)[C@@H](NC(=O)[C@@H](N)Cc2ccc(C(N)=O)cc2)C(=O)NCC(=O)N[C@@H](Cc2ccccc2)C(=O)N[C@H]1C(=O)O | > 10000 | > 10000 | 19 | 320 | – |
| CC(C)C[C@H](NC(=O)[C@H](Cc1ccccc1)NC(=O)CNC(=O)[C@@H](CO)NC(=O)[C@@H](N)Cc1ccc2nc(N)sc2c1)C(=O)N[C@H](C(=O)O)[C@@H](C)O | > 10000 | 640 | 3.8 | 97 | – |
| CSCC[C@H](NC(=O)[C@H](Cc1ccccc1)NC(=O)CNC(=O)[C@@H](C)NC(=O)[C@@H](N)Cc1ccc2nc(N)sc2c1)C(=O)O | > 10000 | 100 | 1 | 24 | 350 |
| CC(C)C[C@@H](NC(=O)[C@H](Cc1ccccc1)NC(=O)CNC(=O)[C@@H](C)NC(=O)[C@@H](N)Cc1cccc(C(N)=O)c1)C(=O)O | > 10000 | 560 | 170 | 1700 | – |
| CC(C)C[C@H](NC(=O)[C@H](Cc1ccccc1)NC(=O)CNC(=O)[C@@H](CO)NC(=O)[C@@H](N)Cc1cc[n+]([O-])cc1)C(=O)N[C@H](C(=O)O)[C@@H](C)O | > 10000 | > 10000 | 360 | – | – |
| CC(C)C[C@@H](NC(=O)[C@H](Cc1ccccc1)NC(=O)CNC(=O)[C@@H](C)NC(=O)[C@@H](N)Cc1ccc2nc(N)sc2c1)C(=O)O | > 10000 | 1200 | 10 | 150 | – |
| CC(C)C[C@@H](NC(=O)[C@H](Cc1ccccc1)NC(=O)CNC(=O)[C@@H](C)NC(=O)[C@@H](N)Cc1ccc(C(=O)O)cc1)C(=O)O | > 10000 | > 10000 | 1100 | – | – |
| CC(C)C[C@@H](NC(=O)[C@H](Cc1ccccc1)NC(=O)CNC(=O)[C@@H](C)NC(=O)[C@@H](N)Cc1ccc(N)cc1)C(=O)O | > 10000 | 1400 | 19 | 74 | – |
| CSCC[C@H](NC(=O)[C@H](Cc1ccccc1)NC(=O)CNC(=O)CNC(=O)[C@@H](N)Cc1ccc(O)cc1)C(N)=O | 210 | – | – | – | – |
| CC(C)C[C@@H](NC(=O)[C@H](Cc1ccccc1)NC(=O)CNC(=O)[C@@H](C)NC(=O)[C@@H](N)Cc1cc[n+]([O-])cc1)C(=O)O | > 10000 | > 10000 | > 10000 | – | – |
| Cc1cc(C(N)=O)cc(C)c1C[C@H](N)C(=O)N[C@H](C)C(=O)NCC(=O)N[C@@H](Cc1ccccc1)C(=O)N[C@H](CC(C)C)C(=O)O | 2400 | 9.8 | 0.78 | 2.5 | 49 |
| Cc1cc(C(N)=O)cc(C)c1C[C@H](N)C(=O)N[C@H](CO)C(=O)NCC(=O)N[C@@H](Cc1ccccc1)C(=O)N[C@@H](CC(C)C)C(=O)N[C@H](C(=O)O)[C@@H](C)O | > 10000 | 19 | 1.2 | 3.5 | 250 |
| CC(C)C[C@H](NC(=O)[C@H](Cc1ccccc1)NC(=O)CNC(=O)[C@@H](CO)NC(=O)[C@@H](N)Cc1cccc(C(N)=O)c1)C(=O)N[C@H](C(=O)O)[C@@H](C)O | > 10000 | 1100 | 42 | 730 | – |
| CC(C)C[C@H](NC(=O)[C@H](Cc1ccccc1)NC(=O)CNC(=O)CNC(=O)[C@@H](N)Cc1ccc2nc(N)sc2c1)C(=O)O (H-[Ala(2-NH2-benzothiazol-6-yl)]GGFL-OH) | > 10000 | 1200 | 19 | 580 | – |
| Cc1cc(C(N)=O)cc(C)c1C[C@H](N)C(=O)NCC(=O)NCC(=O)N[C@@H](Cc1ccccc1)C(=O)N[C@@H](CC(C)C)C(=O)O (H-[Phe(2,6-Me2,4-CONH2)]GGFL-OH) | 1300 | 9.8 | 1 | 4.1 | 180 |
| CC(C)C[C@H](NC(=O)[C@H](Cc1ccccc1)NC(=O)CNC(=O)CNC(=O)[C@@H](N)Cc1cccc(C(N)=O)c1)C(=O)O (H-[Phe(3-CONH2)]GGFL-OH) | > 10000 | > 10000 | 475 | – | – |
| CSCC[C@H](NC(=O)[C@H](Cc1ccccc1)NC(=O)CNC(=O)CNC(=O)[C@@H](N)Cc1ccc(C(N)=O)cc1)C(N)=O (H-[Phe(4-CONH2)]GGFM-NH2) | 460 | 18 | 1.3 | 10 | 270 |
| CSCC[C@H](NC(=O)[C@H](Cc1ccccc1)NC(=O)CNC(=O)CNC(=O)[C@@H](N)Cc1ccc(C(N)=O)cc1)C(=O)O (H-[Phe(4-CONH2)]GGFM-OH) | 1030 | 28 | 1.8 | 5.2 | 140 |
| CC(C)C[C@H](NC(=O)[C@H](Cc1ccccc1)NC(=O)CNC(=O)CNC(=O)[C@@H](N)Cc1cc[n+]([O-])cc1)C(=O)O (H-[X1]GGFL-OH) | > 10000 | > 10000 | > 10000 | – | – |
